The text below walks through data of patent publication US10464978B2, “Peptides and combination of peptides for use in immunotherapy against ovarian cancer and other cancers” (immatics biotechnologies GmbH, priority 2015, dated 2019).

One experiment has as its target HLA-A*02:01 (Homo sapiens, UniProt P04439, D140Y/D185E/D98H/E176V/E277Q/G131W/G231S/I119V/I121R/I166T/I218V/L300P/L318F/N151K/N90K/P208A/P217A/Q86G/Q94H/R138H/R169H/T345S). Put plainly: MHC binding assay: UV-ligand exchange with beta2m ELISA (peptide exchange yield). The following applies: binding to HLA-A*02:01. The essentials: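 Values give exchange yield, measured by β2m ELISA: 100-fold-diluted monomers bound to streptavidin plates (1h, 37° C), probed with HRP anti-β2m at 2 ug/ml and read at 450 nm after TMB. Monomers came from UV-triggered cleavage of a photolabile peptide and exchange for the test peptide.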
(An ELISA detects its analyte on a solid surface through an enzyme-linked reagent.)

In another experiment the test system is CD8+ T cells. In words: In vitro T-cell priming with aAPCs loaded with peptide/MHC and anti-CD28, pMHC multimer readout (in vitro immunogenicity). It counts as cell-based, human. The following applies: HLA-A*02, healthy donors. The protocol: In an aspect, the peptides are pre-screened for immunogenicity before being included in the warehouse. By way of example, and not limitation, the immunogenicity of the peptides included in the warehouse is determined by a method comprising in vitro T-cell priming through repeated stimulations of CD8+ T cells from healthy donors with artificial antigen presenting cells loaded with peptide/MHC complexes and anti-CD28 antibody.
In order to obtain information regarding the immunogenicity of the TUMAPs of the present invention, the inventors performed investigations using an in vitro T-cell priming assay based on repeated stimulations of CD8+ T cells with artificial antigen presenting cells (aAPCs) loaded with peptide/MHC complexes and anti-CD28 antibody.
In order to perform in vitro stimulations by artificial antigen presenting cells loaded with peptide-MHC complex (pMHC) and anti-CD28 antibody, the inventors first isolated CD8+ T cells from fresh HLA-A*02 leukapheresis products via positive selection using CD8 microbeads (Miltenyi Biotec, Bergisch-Gladbach, Germany) of healthy donors obtained from the University clinics Mannheim, Germany, after informed consent.
PBMCs and isolated CD8+ lymphocytes were incubated in T-cell medium (TCM) until use consisting of RPMI-Glutamax (Invitrogen, Karlsruhe, Germany) supplemented with 10% heat inactivated human AB serum (PAN-Biotech, Aidenbach, Germany), 100 U/ml Penicillin/100 μg/ml Streptomycin (Cambrex, Cologne, Germany), 1 mM sodium pyruvate (CC Pro, Oberdorla, Germany), 20 μg/ml Gentamycin (Cambrex). 2.5 ng/ml IL-7 (PromoCell, Heidelberg, Germany) and 10 U/ml IL-2 (Novartis Pharma, Nürnberg, Germany) were also added to the TCM at this step.
Generation of pMHC/anti-CD28 coated beads, T-cell stimulations and readout was performed in a highly defined in vitro system using four different pMHC molecules per stimulation condition and 8 different pMHC molecules per readout condition.
The purified co-stimulatory mouse IgG2a anti human CD28 Ab 9.3 (Jung et al., 1987) was chemically biotinylated using Sulfo-N-hydroxysuccinimidobiotin as recommended by the manufacturer (Perbio, Bonn, Germany). Beads used were 5.6 μm diameter streptavidin coated polystyrene particles (Bangs Laboratories, Illinois, USA).
pMHC used for positive and negative control stimulations were A*0201/MLA-001 (peptide […] (SEQ ID NO. 664) from modified Melan-A/MART-1) and A*0201/DDX5-001 ([…] from DDX5, SEQ ID NO. 665), respectively.
800.000 beads/200 μl were coated in 96-well plates in the presence of 4×12.5 ng different biotin-pMHC, washed and 600 ng biotin anti-CD28 were added subsequently in a volume of 200 μl. Stimulations were initiated in 96-well plates by co-incubating […] CD8+ T cells with 2×10^5 washed coated beads in 200 μl TCM supplemented with 5 ng/ml IL-12 (PromoCell) for 3 days at 37° C. Half of the medium was then exchanged by fresh TCM supplemented with 80 U/ml IL-2 and incubating was continued for 4 days at 37° C. This stimulation cycle was performed for a total of three times. For the pMHC multimer readout using 8 different pMHC molecules per condition, a two-dimensional combinatorial coding approach was used as previously described (Andersen et al., 2012) with minor modifications encompassing coupling to 5 different fluorochromes. Finally, multimeric analyses were performed by staining the cells with Live/dead near IR dye (Invitrogen, Karlsruhe, Germany), CD8-FITC antibody clone SK1 (BD, Heidelberg, Germany) and fluorescent pMHC multimers. For analysis, a BD LSRII SORP cytometer equipped with appropriate lasers and filters was used. Peptide specific cells were calculated as percentage of total CD8+ cells. Evaluation of multimeric analysis was done using the FlowJo software (Tree Star, Oregon, USA). In vitro priming of specific multimer+ CD8+ lymphocytes was detected by comparing to negative control stimulations. […]

With “283 (ALYIGDGYVIHLA; listed as Homo sapiens) [compound 283]”, the “Peptide exchange (MHC class I binding score, peptide exchange yield)” value with HLA-A*02:01 was ““+++” (≥50 = +++)”. For the same substance, in the experiment with CD8+ T cells, the “donors (percentage of positive donors)” value is listed as “+++ (50%-69% = +++)” and the “wells (percentage of positive wells)” value is “+ (<20% = +)”.

With “652 (TLWYRAPEV; listed as Homo sapiens) [compound 652]”, in the experiment with CD8+ T cells, the “donors (percentage of positive donors)” value is “++++ (> = 70% = ++++)” and the “wells (percentage of positive wells)” value was “+++ (50%-69% = +++)”.

On to “659 (ILFPDIIARA; listed as Homo sapiens) [compound 659]”, for which, in the experiment on CD8+ T cells, the “donors (percentage of positive donors)” value is given as “+++ (50%-69% = +++)” and the “wells (percentage of positive wells)” value is on record as “+ (<20% = +)”.

“662 (KIQEILTQV; listed as Homo sapiens) [compound 662]”: in the experiment with CD8+ T cells, the “donors (percentage of positive donors)” value is reported as “+++ (50%-69% = +++)” and the “wells (percentage of positive wells)” value is listed as “+ (<20% = +)”.

As for “663 (KIQEMQHFL; listed as Homo sapiens) [compound 663]”, in the experiment with CD8+ T cells, the “donors (percentage of positive donors)” value is given as “+++ (50%-69% = +++)” and the “wells (percentage of positive wells)” value is on record as “+ (<20% = +)”.
